Assay results published in patent EP2014168A1, “Insecticidal heterocyclic compounds” (priority 2007, dated 2009).

How the values were obtained:
Myzus persicae [1] = assay: Myzus test (spray treatment); type: in vivo; conditions: foliar, read-out: Wirkung
Source text: Myzus-Test (Spritzbehandlung)
Zur Herstellung einer zweckmäßigen Wirkstoffzubereitung vermischt man 1 Gewichtsteil Wirkstoff mit den angegebenen Mengen Lösungsmittel und Emulgator und verdünnt das Konzentrat mit emulgatorhaltigem Wasser auf die gewünschte Konzentration.
Chinakohlblattscheiben (Brassica pekinensis), die von allen Stadien der Grünen Pfirsichblattlaus (Myzus persicae) befallen sind, werden mit einer Wirkstoffzubereitung der gewünschten Konzentration gespritzt.
Nach der gewünschten Zeit wird die Wirkung in % bestimmt. Dabei bedeutet 100 %, dass alle Blattläuse abgetötet wurden; 0 % bedeutet, dass keine Blattläuse, abgetötet wurden.

Myzus persicae [2] = assay: Myzus test - oral; type: in vivo; conditions: read-out: Wirkung
Source text: Lösungsmittel: 80,0 Gewichtsteile Aceton
Zur Herstellung einer zweckmäßigen Wirkstoffzubereitung vermischt man 1 Gewichtsteil Wirkstoff mit den angegebenen Mengen Lösungsmittel und verdünnt das Konzentrat mit Wasser auf die gewünschte Konzentration.
Gefäße werden mit allen Stadien der Grünen Pfirsichblattlaus (Myzus persicae) besetzt, durch saugen an der Wirkstoffzubereitung der gewünschten Konzentration wird behandelt.
Nach der gewünschten Zeit wird die Wirkung in % bestimmt. Dabei bedeutet 100 %, dass alle Blattläuse abgetötet wurden; 0 % bedeutet, dass keine Blattläuse abgetötet wurden.

[3] = logP determination (acidic, formic acid)
physchem = conditions: formic acid
[4] = 500 g/ha, spray on infested Brassica pekinensis leaf discs, 100 % = all aphids killed
[5] = 500 g/ha, oral uptake by sucking on the active compound preparation, 100 % = all aphids killed

CNC(=S)N1CCOC1=NC1CCc2ccsc21 (stereo not shown) [Beispiel 7] gave a mortality at 500 g/ha (Myzus persicae [1]; [4]) of no less than 80%.
CCOC(=O)CNC(=S)N1CCOC1=NC1CCc2cc(C)cnc21 (stereo not shown) [Beispiel 47] showed a mortality at 500 g/ha (Myzus persicae [2]; [5]) of no less than 80%.
For CNC(=S)N1CCOC1=NC1CCc2ncccc21 (stereo not shown) [Beispiel 30], the mortality at 500 g/ha (Myzus persicae [1]; [4]) was no less than 80%.
Compound COCCNC(=S)N1CCO/C1=N\C1CCc2ncccc21 (stereo not shown) [Beispiel 6, (2Z)-2-(6,7-Dihydro-5H-cyclopenta[b]pyridin-5-ylimino)-N-(2-methoxyethyl)-1,3-oxazolidine-3-carbothioamid] has a logP ([3]; acidic) of 1.03 and a mortality at 500 g/ha (Myzus persicae [1]; [4]) of no less than 80%.
CCOC(=O)CNC(=S)N1CCOC1=NC1CCc2ccsc21 (stereo not shown) [Beispiel 14] gave a mortality at 500 g/ha (Myzus persicae [1]; [4]) of no less than 80%.
In the case of CNC(=S)N1CCOC1=NC1CCc2cc(Cl)sc21 (stereo not shown) [Beispiel 19], the mortality at 500 g/ha (Myzus persicae [1]; [4]) is reported as no less than 80%.
In the case of COCCNC(=S)N1CCO/C1=N\C1CCc2ccsc21 (stereo not shown) [Beispiel 3, (2Z)-2-(5,6-Dihydro-4H-cyclopenta[b]thien-6-ylimino)-N-(2-methoxyethyl)-1,3-oxazolidine-3-carbothioamid], the logP ([3]; acidic) is reported as 3.32 and the mortality at 500 g/ha (Myzus persicae [1]; [4]) is reported as no less than 80%.
In the case of O=C(NCCCl)NC1CCc2ncccc21 (stereo not shown) [Beispiel 4, 1-(2-Chloroethyl)-3-(6,7-dihydro-5H-cyclopenta[b]pyridin-5-yl)-harnstoff], the logP ([3]; acidic) is reported as 0.23.
With Cc1cnc2c(c1)CCC2N=C1NCCO1 (stereo not shown) [Beispiel 43] the mortality at 500 g/ha (Myzus persicae [2]; po) was no less than 80%.
In the case of Clc1cc2c(s1)C(N=C1NCCO1)CC2 (stereo not shown) [Beispiel 18], the mortality at 500 g/ha (Myzus persicae [1]; [4]) is reported as no less than 80%.
With CNC(=S)N1CCOC1=NC1CCc2cc(C)cnc21 (stereo not shown) [Beispiel 44] the mortality at 500 g/ha (Myzus persicae [2]; [5]) was no less than 80%.
With c1cc2c(s1)C(NC1=NCCO1)CC2 (stereo not shown) [Beispiel 2, N-(5,6-Dihydro-4H-cyclopenta[b]thien-6-yl)-4,5-dihydro-1,3-oxazol-2-amin] the logP (physchem) was 0.42 and the mortality at 500 g/ha (Myzus persicae [1]; in Brassica rapa) was no less than 80%.
For O=C(NCCCl)NC1CCc2ccsc21 (stereo not shown) [Beispiel 1, 1-(2-Chloroethyl)-3-(5,6-dihydro-4H-cyclopenta[b]thien-6-yl)-harnstoff], the logP ([3]; formic acid) was 1.77.
